Numbers after ± are expanded uncertainties.
Experiment: mn = molality of the nth substance listed, in mol/kg
Conditions: Liquid, m2 = 0

O [water] + NC(N)=O
Conditions	mass density [kg/m3]
274.15 K, 101 kPa, Vibrating tube method	999.899 ± 0.084
275.15 K, 101 kPa, Vibrating tube method	999.94 ± 0.084
276.15 K, 101 kPa, Vibrating tube method	999.964 ± 0.083
277.15 K, 101 kPa, Vibrating tube method	999.972 ± 0.096
278.15 K, 101 kPa, Vibrating tube method	999.964 ± 0.083
278.15 K, 10000 kPa, Constant-volume piezometry	1004.78 ± 0.18
278.15 K, 25000 kPa, Constant-volume piezometry	1011.88 ± 0.26
278.15 K, 50000 kPa, Constant-volume piezometry	1023.2 ± 0.45
278.15 K, 75000 kPa, Constant-volume piezometry	1033.92 ± 0.66
278.15 K, 100000 kPa, Constant-volume piezometry	1044.08 ± 0.87
279.15 K, 101 kPa, Vibrating tube method	999.94 ± 0.083
280.15 K, 101 kPa, Vibrating tube method	999.901 ± 0.083
281.15 K, 101 kPa, Vibrating tube method	999.848 ± 0.083
282.15 K, 101 kPa, Vibrating tube method	999.781 ± 0.083
283.15 K, 101 kPa, Vibrating tube method	999.699 ± 0.083
288.15 K, 10000 kPa, Constant-volume piezometry	1003.66 ± 0.18
288.15 K, 25000 kPa, Constant-volume piezometry	1010.42 ± 0.27
288.15 K, 50000 kPa, Constant-volume piezometry	1021.21 ± 0.46
288.15 K, 75000 kPa, Constant-volume piezometry	1031.47 ± 0.67
288.15 K, 100000 kPa, Constant-volume piezometry	1041.23 ± 0.88
298.15 K, 10000 kPa, Constant-volume piezometry	1001.46 ± 0.19
298.15 K, 25000 kPa, Constant-volume piezometry	1007.99 ± 0.28
298.15 K, 50000 kPa, Constant-volume piezometry	1018.44 ± 0.47
298.15 K, 75000 kPa, Constant-volume piezometry	1028.38 ± 0.68
298.15 K, 100000 kPa, Constant-volume piezometry	1037.86 ± 0.88
308.15 K, 10000 kPa, Constant-volume piezometry	998.36 ± 0.2
308.15 K, 25000 kPa, Constant-volume piezometry	1004.74 ± 0.29
308.15 K, 50000 kPa, Constant-volume piezometry	1014.97 ± 0.48
308.15 K, 75000 kPa, Constant-volume piezometry	1024.71 ± 0.69
308.15 K, 100000 kPa, Constant-volume piezometry	1034.01 ± 0.89
323.15 K, 101 kPa, Vibrating tube method	988.03 ± 0.087
323.15 K, 10000 kPa, Constant-volume piezometry	992.3 ± 0.21
323.15 K, 25000 kPa, Constant-volume piezometry	998.61 ± 0.3
323.15 K, 50000 kPa, Constant-volume piezometry	1008.68 ± 0.5
323.15 K, 75000 kPa, Constant-volume piezometry	1018.27 ± 0.7
323.15 K, 100000 kPa, Constant-volume piezometry	1027.42 ± 0.91
333.15 K, 101 kPa, Vibrating tube method	983.191 ± 0.087

Source: the NIST ThermoML archive (doi:10.1016/j.jct.2018.01.024)
